Measured values taken from US5474757A, “Prevention of acetaminophen overdose toxicity with organosulfur compounds” (priority 1992, dated 1995).

How the values were obtained:
P-450 2E1 [1] = conditions: isolated rat liver microsomes; cited from earlier work
[2] = test system: acetaminophen-induced hepatotoxicity; test: animal or person; conditions: for GPT / LDH / Survival / Extent of liver damage: 25 mg/kg oral
Text: Blood samples were obtained from the jugular vein of CO2 -anesthetizedanimals. The blood was allowed to clot at room temperature and serum was separated by centrifugation. […] Biochem. Biophys.
Randomly-selected samples of the major hepatic lobe were fixed in 10% buffered formalin for histological evaluation. Samples were subsequently embedded in Paraplast (Fisher Scientific) and sectioned at 6 μm on a rotary microtome. Tissue sections were stained with hematoxylin-eosine-phloxine for examination. Extent of tissue damage was determined using a Presage CV-6 Image Analysis System (Advanced Imaging Concepts, Inc.). Images of randomly-selected slides (3 slides/animal, 2-3 animals/group) containing full cross sections of the major hepatic lobe were projected onto a computer screen and the image captured. The areas of damage were then outlined on the screen and the areas quantated using interactive software. The area of damage was shown as a percentage of the total hepatic area for each section. All determinations were made without knowledge of treatment group.
Data were analyzed by the Newman-Keuls multiple comparison procedure on the rank score analysis.
All experiments were replicated at least once.
As a Comparative Example, 300 mg/kg N-acetylcysteine was also administered immediately after administration of 0.2 g/kg acetaminophen.
As a Comparative Example, 300 mg/kg N-acetylcysteine was also administered 1 hour after administration of 0.2 g/kg acetaminophen.

P-450 2E1 [3] = conditions: treatment of rats; cited from earlier work
[4] = test system: 1,2-dimethylhydrazine-induced hepatotoxicity and carcinogenesis; conditions: rats; cited from earlier work
[5] = test system: acetaminophen-induced hepatotoxicity; test: Protective effect against acetaminophen overdose in rats (serum GPT, LDH, liver damage); format: in vivo, rat (male Fisher 344)
Method: Brady et al., "Effect of […] […] Biochem. […] Extent of tissue damage was determined using a […]-6 Image Analysis System (Advanced Imaging Concepts, Inc.). […] All determinations were made without knowledge of treatment group. […] All experiments were replicated at least once.

[6] = test system: carbon tetrachloride hepatotoxicity; conditions: cited from earlier work
[7] = test system: hepatotoxicity of N-nitrosodimethylamine; conditions: pre-treatment of rats; cited from earlier work
[8] = test system: p-nitrophenol hydroxylase; conditions: isolated rat liver microsomes; cited from earlier work
[9] = immediately (0 min) after APAP 0.2 g/kg
[10] = 50 mg/kg oral, 1 hour after APAP 0.4 g/kg, mean ± SD of five rats

For `C=CCSCC=C` [DAS, diallyl sulfide], the “inhibition of P-450 2E1-catalyzed NDMA demethylase” value (P-450 2E1 [1]) is given as “competitively”, the GPT ([2]; 20 min after APAP 0.2 g/kg) is given as 158 ± 41 U/L and the LDH ([2]; 20 min after APAP 0.2 g/kg) is given as 2374 ± 3533 U/L. The Survival ([2]; 20 min after APAP 0.2 g/kg) was 5/5, the “Extent of liver damage” value ([2]; 1 hour after APAP 0.2 g/kg) was 16-39% and the GPT ([2]; 1 hour after APAP 0.2 g/kg) was 179 ± 2 U/L. The LDH ([2]; 1 hour after APAP 0.2 g/kg) was 15609 ± 7143 U/L, the Survival ([2]; 1 hour after APAP 0.2 g/kg) was 3/5 and the “Extent of liver damage” value [2, 9] was 8-17%. The GPT [2, 9] was 143 ± 50 U/L, the LDH [2, 9] was 1899 ± 1724 U/L and the Survival [2, 9] was 5/5. The “protection against acetaminophen toxicity” value ([2]; 25 mg/kg, immediately after acetaminophen, mice) was “although preventing the elevation of the LDH level, only partially prevented liver damage and had little or no effect on the elevated serum GPT level”, the minimal effective dose ([2]; Mus musculus, read-out: low dose at which protective effect was demonstrated) was 5 mg/kg and the “liver microsomal P-450 2E1-dependent (NDMA demethylase) activity” value (P-450 2E1 [3]) was “decreased”. The “protection against 1,2-dimethylhydrazine-induced hepatotoxicity and carcinogenesis” value [4] was “protect toxicity”, the “Extent of liver damage” value ([5]; 50 mg/kg oral, 1 hour after APAP 0.4 g/kg) was 5-13% and the GPT [5, 10] was 70 ± 13 U/L. The LDH [5, 10] was 220 ± 82 U/L, the protection against hepatotoxicity ([5]; 50 mg/kg, 1 hr after APAP, rats) was “prevented the elevation of serum GPT and LDH levels, but did not completely prevent liver damage” and the minimal effective dose ([5]; Rattus norvegicus, rats, read-out: low dose at which protective effect was demonstrated) was 5 mg/kg. The “inhibition of hepatotoxicity of CCl4” value ([6]; pre-treatment of rats) was “inhibited the hepatotoxicity”, the “protection against carbon tetrachloride hepatotoxicity” value ([6]; rat, in vivo) was “protect toxicity associated with carbon tetrachloride hepatotoxicity” and the “inhibition of hepatotoxicity of N-nitrosodimethylamine” value [7] was “inhibited the hepatotoxicity”. The “inhibition of p-nitrophenol hydroxylase” value [8] was “competitively”.
